Experimental data reported in patent US5972357A, “Healthy foods and cosmetics” (Kikkoman Corporation, priority 1996, dated 1999).

Experiments:
[1] = anti-oxidation activity (linoleic acid/β-carotene emulsion, autoxidation); settings: 0.0005% test substance, pH 7.0, 25° C., 460 nm; lesser ratio = stronger
Method: The anti-oxidation activities was evaluated according to the method by A. Ben Aziz et al. […] That is to say, an emulsion of linoleic acid and β-carotene was first prepared with Tween 20 (Sigma) and adjusted to pH 7.0 with 0.1 M trishydroxyaminomethane-hydrochloride. […] During the reaction, the color degradation of β-carotene in association with the autoxidation of linoleic acid was measured with the passage of time as the decreased value of the optical density at 460 nm with a spectrophotometer. […] The antioxidant activity was measured as a ratio of the decreasing rate of absorbance in the presence of the substance to be tested to the decreasing rate of absorbance in the absence of the antioxidant.

[2] = DPPH radical scavenging activity
Method: The 1,1-diphenyl-2-picrylhydrazyl (DPPH) radical scavenging activity was tested with a garcinol preparation prepared in the similar manner as described in Referential Example 1. That is to say, a 1.0×10^-4 M solution (50% ethanolic) of DPPH was prepared, 0.0002% of a test substance was added, and the decrease of optical density at 528 nm was measured after 1 hour reaction at 25° C. for one hour. In this case, ascorbic acid was used as a standard, the decrease of the absorbance was expressed as 100, and the radical scavenging activity of the test substance was measured as equivalences to ascorbic acid. In this connection, a garcinol preparaion used as the test substance, and vitamin E and (+)-catechin were used as references.

[3] = superoxide scavenging activity test with phenazine methosulfate; settings: 40 μM final concentration
Method: The active oxygen scavenging activity was evaluated according to the superoxide scavenging activity test with phenazine methosulfate. That is to say, dihydronicotinamide adenine dinucleotide and phenazine methosulfate were first reacted in a buffer at a physiological hydrogen ion concentration. The absorbance at 560 nm of a formazan pigment produced by the reduction of Nitro Blue Tetrazolium with superoxide was measured. […] The ratio of decreases of absorbance was expressed as superoxide scavenging activity.

[4] = survival rate of the cells in the EBV-EA induction inhibiting test; assay type: cell-based; settings: human, raji cells, 8 μg/ml
Method: The EBV potentially infected human lymphoblasts (Raji) were first prepared in a concentration of 5×10^5 cell/ml, and cultured in an RPMI-1640 medium to which 3 mM n-butyric acid (inducer) and 50 nM TPA (12-O-tetradecanoylphorbol-13-acetate) (promoter) were added in an atmosphere of 5% carbon dioxide and 95% air under at a temperature of 37° C. for 48 hours. The cells in which EBV-EA had been induced were detected microscopically by indirect immunofluorescence with the serum of a nasopharyngeal carcinoma (NPC) patient. In this system, various concentrations (8 μg/ml, 40 μg/ml, and 200 μg/ml) of the test substance (garcinol sample shown in Referential Example 1) dissolved in DMSO (dimethylsolfoxide) were added together with the promoter to the cells. The activity of suppressing the induction of the Epstein-Barr virus early antigen was defined as the decreasing rate of the cells in which EBV-EA had been induced.

[5] = system: gastric ulcer; experiment: anti-ulcer test against stress ulcer (restrained immersion into water); assay type: in vivo, Wistar/ST male rats; settings: 200 mg/kg oral
Method: Gastric ulcer was induced in Wistar/ST male rats having a weight of about 200 g (6 w) by the stress of restrained immersion into water and the anti-ulcer effects of the test samples were examined in the following groups to which test samples were administered.
Each group comprises six rats.
Group 1: (control) physiological saline
Group 2: (comparative) cetraxate hydrochloride 200 mg/kg
Group 3: (the present invention) garcinol 200 mg/kg
In this connection, the test samples in the control, comparative group and the present invention group were prepared in the same manner as in Experimental Example 9.
Rats having fasted for 24 hours were locked up in a restrained dipping cage after 30 minutes from the oral administration of respective test samples. Next, rats were stressed by dipping the cage into water at 23° C. for 7 hours, and bleeded to death under anesthetization with nembutal, and stomach was isolated. A phosphate buffer (10 ml) containing 10% formalin was injected into the stomach, which was cut open after 10 minutes, and the length of lesion caused in the glandular stomach portion was defined as the lesion index, which was measured in the mm unit to evaluate the anti-ulcer effect.
The method for calculating the suppression rate (%) and the meaning of it has been described in Experimental Example 9.

[6] = system: mice; set-up: species or system ICR/crj male mice; settings: mouse, in vivo
Method: ICR/crj male mice (5 week-old) having a weight of 29-32 g, each group comprising 5 animals.
Toxicity test by single administration was carried out in accordance with Guidelines of the Toxicity Test Method for Pharmaceuticals (Nichi-Yaku-Shin No. 118, released on Feb. 15, 1984, Notice of Second Section Manager of Examination of Pharmaceutical Affairs Bureau in Ministry of Health and Welfare to the Managers of Hygiene Division of Prefectures).
Garcinol was suspended into a physiological saline in a concentration of 30 mg/ml, and the suspension was administered orally to mice at a dose of 0.5 ml per 30 g of body weight (500 mg/kg of body weight) for observation for 14 days.

C=C(C)[C@@H](CC=C(C)C)C[C@@]12C[C@@H](CC=C(C)C)C(C)(C)[C@@](CC=C(C)C)(C(=O)C(C(=O)c3ccc(O)c(O)c3)=C1O)C2=O [garcinol]
antioxidant activity (ratio of the decreasing rate of absorbance with to without test substance) [1]: 0.50
DPPH radical scavenging activity (equivalences to ascorbic acid = 100) ([2]; 0.0002% test substance, 1.0×10^-4 M DPPH, 25° C., 1 hour, 528 nm): 85
radical scavenging activity per unit weight relative to vitamin E ([2]; per unit weight of vitamin E): about three times
superoxide scavenging rate [3]: 75%
viability at 48 h [4]: ≥ 80%
Length of ulcer ([5]; restrained water immersion 23° C., 7 hours, control 44.20 ± 18.10): 17.60 ± 9.96 mm
Suppression rate ([5]; stress ulcer, vs. control): 60.2%
microscopic disorders in tissues or organs (autopsy) [6]: no microscopic disorders in tissues or organs were observed
